These results are taken from ChEMBL document CHEMBL1212939, “Structure and relative potency of several karlotoxins from Karlodinium veneficum” (J Nat Prod, 2010).

This data set can be described thus: Toxicity in human erythrocytes assessed as hemolytic activity after 24 hrs. The class given is cell-based, Erythrocyte.
For the compound `C=C/C=C/CCCCCCCCCC/C=C/C(O)C(O)C1OC(C(O)C(O)C(=C)CCC(O)C2OC(CC(O)C(O)C(C)CCCC(O)C(O)C(O)C(C)CCC(O)C(O)C(C)CC(O)CCCC(CCCC(O)/C=C/CC(O)CO)OS(=O)(=O)O)C(O)C(O)C2O)CC(O)C1O` (stereo not given), the EC50 at 24 h turned out to be 0.3 µM.
For the compound `C=C/C=C/CCCCCCCCCC/C=C/C(O)C(O)C1OC(C(O)C(O)C(=C)CCC(O)C2OC(CC(O)C(O)C(C)CCCC(O)C(O)C(O)C(C)CCC(O)C(O)C(C)CC(O)CCCC(O)CCCC(O)/C=C/CC(O)CO)C(O)C(O)C2O)CC(O)C1O` (stereo not given), the EC50 at 24 h was found to be 0.063 µM.
For `C=C/C=C/CCCCCCCCC/C=C/C(O)C(O)C1OC(C(O)C(O)C(=C)CCC(O)C2OC(CC(O)C(O)C(C)CCCC(O)C(O)C(O)C(C)CCC(O)C(O)C(C)CC(O)CCCC(O)CCCC(O)/C=C/CC(O)CO)C(O)C(O)C2O)CC(O)C1O` (stereo not given), the 50% effective concentration (EC50) at 24 h worked out at 0.2 µM.
The result for `C=C(CCC(O)C1OC(CC(O)C(O)C(C)CCCC(O)C(O)C(O)C(C)CCC(O)C(O)C(C)CC(O)CCCC(O)CCCC(O)/C=C/CC(O)CO)C(O)C(O)C1O)C(O)C(O)C1CC(O)C(O)C(C(O)C(O)/C=C/CCCCCCCCC/C=C/C=C/Cl)O1` (stereo not given) reads 0.11 µM.
As to `C=C(CCC(O)C1OC(CC(O)C(O)C(C)CCCC(O)C(O)C(O)C(C)CCC(O)C(O)C(C)CC(O)CCCC(O)CCCC(O)/C=C/CC(O)CO)C(O)C(O)C1O)C(O)C(O)C1CC(O)C(O)C(C(O)C(O)/C=C/CCCCCCCCCC/C=C/C=C/Cl)O1` (stereo not given), the half-maximal effective concentration (EC50) at 24 h is 0.056 µM.
